Measurements from patent publication US6664231B1, “Anti-fungal peptides” (priority 1993, dated 2003).
In brackets after ≈: the same amount, converted by molar mass. Square brackets hold non-standard residues; d marks the D form. Peptide text beside a SMILES is read from it. * marks the point of attachment. 1Nal = N[C@@H](Cc1cccc2ccccc12)C(=O)O; Lauroyl = CCCCCCCCCCCC(=O)*

How the values were obtained:
[1] = system: C. albicans designated CA-1, Strain SLU-1; conditions: designated CA-1, Strain SLU-1, 18 h
Description: In each broth assay screening procedure, a colony of C. albicans designated CA-1, Strain SLU-1 that was received from the laboratories of G. Matuschak and A. Lechner, St. Louis University Hospital, St. Louis, Mo., where the strain was maintained, was inoculated into a tube containing 5 mL Sabouraud Dextrose broth (2% dextrose, 1% neopeptone) and incubated overnight at 37° C. with shaking. The overnight culture was diluted 1:50 into 5 mL of fresh broth and incubated for 3 hours at 37° C. Organisms were pelleted by centrifugation in a Beckman J-6M centrifuge for 5 minutes at 3000 rpm (1500×g) and the pellets were resuspended in 5 mL phosphate buffered saline (PBS) and the optical density at 570 nm was determined. On the basis of the determination that one OD unit equals 3×10^7 colony forming units/mL, yeast cells were diluted to 2×10^6 cells/mL in Sabouraud Dextrose broth.
Domain III peptides derived from or based on BPI to be screened were originally constituted in Dulbecco's-PBS, were diluted to 100 μg/mL in broth and were serially diluted 2-fold into wells of a 96 well sterile, flat bottom, non-pyrogenic tissue culture plate (Costar, Cambridge, Mass.). All assays were performed in triplicate. 2×10^5 organisms were added at 100 μl per well; final volume was 200 μL/well; the plate was incubated on a shaker at 37° C. for 18 hours; and the optical densities for each well were read at 590 nm. […] The broth assay data may be set out in terms of minimum inhibitory concentration (MIC), i.e. the lowest concentration required to reduce the optical density at 590 nm to below 0.1.

[2] = system: C. albicans (CA-1, Strain SLU-1); assay: Radial diffusion assay; format: cell-based, Candida albicans; conditions: pmoles of peptide added to well to achieve a 30 mm^2 zone, PROBIT analysis, crude or purified (P′) peptide
Procedure, shortened: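 Peptides, serially diluted 2-fold in D-PBS (top ~1 mg/mL), diffused 3 h at 37° C into pH 7.4 phosphate-buffered agarose seeded with 1×10^6 CFU/mL yeast, before overnight growth under a 6% Sabouraud overlayer. Net inhibition zones measured after Coomassie staining; PROBIT fit of log pmol vs area gave pmol for 30 mm^2.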

in vitro = in vitro ADME, rat or human serum; conditions: half-life of peptide in serum as detected by HPLC analysis; for half-life at 0.5 mg/mL: serum, read-out: HPLC Peptide in Serum t ½ (converted)
Description: (§1) For these serum stability experiments, peptides were prepared by solid phase peptide sythesis and purified to 94% or greater purity as described in Example 1. Blood was collected from metaphane anesthesized rats by aortic bleed into Vacutainer™ tubes and allowed to clot at room temperature for approximately 30 minutes, then centrifuged at 3000 rpm (about 1000×g) for 10 minutes at room temperature and the serum aspirated. In addition, frozen human serum (North American Biologics, Inc., Miami, Fla., cat. no. 2140, lot no. 94115) was thawed at room temperature and filtered through a 0.45 μm membrane before use.
(§2) A 1 mg/mL solution of an exemplary XMP peptide to be tested was added to an equal volume of either rat or human serum described above and maintained at 37° C. At 0, 1, 2, and 4 hours, 100 μL were removed and processed by solid phase extraction for HPLC analysis as follows. Serum samples were prepared for HPLC using C-18 Sep-Pak cartridges (1 mL cartridge with 100 mg of sorbent, Waters Corp., Milford, Mass.). One hundred μL of serum sample were added to an equal volume of 1% TFA and mixed for 30 seconds on a Vortex mixer. The sample was then applied to a C-18 Sep-Pak cartridge that had been conditioned by washing with 1 mL of methanol followed by 1 mL Milli-Q water. Weakly reed components were eluted by washing with 1 mL of 0. 1% TFA. The bound peptide was eluted with two volumes of 250 μL 80% acetonitrile/0.065% TFA.
The material eluted from the Sep-Pak cartridge was analyzed on a Michrom Ultaafast Microprotein Analyzer equipped with a 150 mm×1 mm, 5μ particle, 300 Å pore C-8 Zorbax column. The column oven was set to 40° C., the flow rate was 100 μL/minute, and injection volumes were typically 5-10 μL. HPLC was performed using 5% acetonitrile/0.1% TFA in water as mobile phase A, and 80% acetonitrile/0.065% TFA as mobile phase B. The eluate was monitored spectiophotometrically at 214 nm. Peptide standards were dissolved in mobile phase A at 0. 1 mg/mL. The gradient was 25-35% B/10 minutes followed by a 5 minute wash step of 100% B and reequilibration at 25% B for 10 minutes.

[3] = system: Candida albicans SLU-1 strain; assay: Serum stability, anti-fungal activity after serum incubation by radial diffusion bioassay; format: in vitro ADME, rat or human serum
Description: as §1, §2
(§3) The peptides identified and purified after serum incubation as described above were subjected to N-terminal peptide sequencing performed on an Applied Biosystems Model 477A/120A sequencer and to electrospray ionization mass spectrometry (ESI/MS) performed using a VG Biotech Bio-Q Mass Spectrometer. In addition, the peptides identified and purified after serum incubation as described above were also tested for their anti-fungal activity in a radial diffusion bioassay with Candida albicans SLU-1 strain as described in Example 2.

[4] = as above; format: in vitro ADME, rat or human serum; conditions: Activity in Serum t ½ (hr.)
Description: as §1, §2, §3

mouse RAW 264.7 cells = conditions: RAW 264.7 cell growth inhibited by 50%
[5] = system: mouse RAW 264.7 cells incubated with E. coli O113 LPS; conditions: RAW 264.7 cells with E. coli O113 LPS; concentration reversing LPS growth inhibition by 50%

Molecule	C. albicans pmol/30 mm^2 zone [2]	half-life at 0.5 mg/mL (in vitro) [h]	Activity in Serum t ½ (hr.) [3]	half-life at 0.5 mg/mL [4] [h]	further results
CC[C@H](C)[C@H](NC(=O)[C@H](CC(C)C)NC(=O)[C@H](Cc1c[nH]c2ccccc12)NC(=O)CNC(=O)[C@@H](NC(=O)[C@H](CCCCN)NC(=O)[C@H](CO)NC(=O)[C@@H](N)CCCCN)C(C)C)C(=O)N[C@@H](CCC(N)=O)C(=O)N[C@@H](Cc1cccc2ccccc12)C(=O)N[C@@H](Cc1ccccc1)C(=O)N[C@@H](Cc1c[nH]cn1)C(=O)N[C@@H](CCCCN)C(=O)N[C@@H](CCCCN)C(N)=O [XMP.143] (H-KSKVGWLIQ[1Nal]FHKK-NH2)	>2839 pmol/30 mm^2 zone	–	–	–	minimum inhibitory concentration (MIC), lowest concentration required to reduce the optical density at 590 nm to below 0.1 [1]: 25.0 µg/mL (≈ 13.9 µM)
CC[C@H](C)[C@H](NC(=O)[C@H](CC(C)C)NC(=O)[C@@H](Cc1c[nH]c2ccccc12)NC(=O)[C@H](N)CCCCN)C(=O)N[C@@H](CCC(N)=O)C(=O)N[C@@H](CC(C)C)C(=O)N[C@@H](Cc1ccccc1)C(=O)N[C@@H](Cc1c[nH]cn1)C(=O)N[C@H](CCCCN)C(=O)N[C@H](CCCCN)C(N)=O [XMP.363]	1,015 pmol/30 mm^2 zone	11.8	indefinite	–	C. albicans pmol/30 mm^2 zone ([2]; listed as XMP.363P′): 741 pmol/30 mm^2 zone
CC[C@H](C)[C@H](NC(=O)[C@H](CC(C)C)NC(=O)[C@@H](Cc1c[nH]c2ccccc12)NC(=O)[C@@H](CCCCN)NC(C)=O)C(=O)N[C@@H](CCC(N)=O)C(=O)N[C@@H](CC(C)C)C(=O)N[C@@H](Cc1ccccc1)C(=O)N[C@@H](Cc1c[nH]cn1)C(=O)N[C@H](CCCCN)C(=O)N[C@H](CCCCN)C(N)=O [XMP.364]	1,523 pmol/30 mm^2 zone	25	indefinite	–	–
CC[C@@H](C)[C@@H](NC(=O)[C@@H](CCC(N)=O)NC(=O)[C@@H](CC(C)C)NC(=O)[C@H](N)CCCCN)C(=O)N[C@H](CC(C)C)C(=O)N[C@H](Cc1c[nH]c2ccccc12)C(=O)N[C@H](CCCCN)C(=O)N[C@H](CCCCN)C(N)=O [XMP.374]	198 pmol/30 mm^2 zone	–	indefinite	–	HPLC Peptide in Serum t ½ (hr.) (in vitro): indefinite
CC[C@@H](C)[C@@H](NC(=O)[C@@H](C)NC(=O)[C@@H](Cc1c[nH]c2ccccc12)NC(=O)[C@@H](CCCCN)NC(=O)[C@H](N)CCCCN)C(=O)N[C@H](CCC(N)=O)C(=O)N[C@H](CC(C)C)C(=O)N[C@H](CCCCN)C(=O)N[C@H](CCCCN)C(N)=O [XMP.375] (H-[dK][dK][dW][dA][dI][dQ][dL][dK][dK]-NH2)	123 pmol/30 mm^2 zone	–	indefinite	–	HPLC Peptide in Serum t ½ (hr.) (in vitro): indefinite
CC[C@@H](C)[C@@H](NC(=O)[C@@H](CCC(N)=O)NC(=O)[C@@H](CC(C)C)NC(=O)[C@@H](CCCCN)NC(=O)[C@H](N)CCCCN)C(=O)N[C@H](C)C(=O)N[C@H](Cc1c[nH]c2ccccc12)C(=O)N[C@H](CCCCN)C(=O)N[C@H](CCCCN)C(N)=O [XMP.376] (H-[dK][dK][dL][dQ][dI][dA][dW][dK][dK]-NH2)	138 pmol/30 mm^2 zone	–	indefinite	–	HPLC Peptide in Serum t ½ (hr.) (in vitro): indefinite
CCCCCCCCCCCC(=O)N[C@@H](CCCCN)C(=O)N[C@@H](CCCCN)C(=O)N[C@@H](Cc1c[nH]c2ccccc12)C(=O)N[C@@H](C)C(=O)N[C@H](C(=O)N[C@@H](CCC(N)=O)C(=O)N[C@@H](CC(C)C)C(=O)N[C@@H](CCCCN)C(=O)N[C@@H](CCCCN)C(N)=O)[C@@H](C)CC [XMP.411] (Lauroyl-KKWAIQLKK-NH2; C-terminus assumed)	–	9.7	–	4.2	IC50 (toxicity/growth inhibition of peptide) (mouse RAW 264.7 cells): >25 µg/mL; In Vitro LPS Neutralization EC50 [5]: 2.94 ± 0.14 µg/mL
H-KKWLIQLFHKK-NH2 [XMP.352]	354 pmol/30 mm^2 zone	0.7	–	1.2	–
H-KKWLIQLKKK-NH2 [XMP.349]	120 pmol/30 mm^2 zone	1.4	–	3.3	–
H-KSKVGWLIQWFHKK-NH2 [XMP.142]	1244 pmol/30 mm^2 zone	–	–	–	minimum inhibitory concentration (MIC), lowest concentration required to reduce the optical density at 590 nm to below 0.1 [1]: 12.5 µg/mL
H-KSKVGYLIQLFHKK-NH2 [XMP.139]	323 pmol/30 mm^2 zone	–	–	10.6	minimum inhibitory concentration (MIC), lowest concentration required to reduce the optical density at 590 nm to below 0.1 [1]: 6.25 µg/mL
H-KSKVKFLIQLFHKK-NH2 [XMP.138]	257 pmol/30 mm^2 zone	–	–	–	minimum inhibitory concentration (MIC), lowest concentration required to reduce the optical density at 590 nm to below 0.1 [1]: 3.13 µg/mL
H-PWAIQLFHKK-NH2 [XMP.387]	82 pmol/30 mm^2 zone	2.8	–	2.3	–
H-PWLIQLFHKK-NH2 [XMP.355]	2,529 pmol/30 mm^2 zone	3.2	–	5.7	C. albicans pmol/30 mm^2 zone ([2]; listed as XMP.355P′): 218 pmol/30 mm^2 zone
